According to the supplement of paper PMC5908809:

Legend:
KAI3 (IL-2 2.5 ng/mL) [1] = assay: drug sensitivity score (DSS) (DSS units); higher = more sensitive; extreme values may be limits of the assay; settings: 72 h
[2] = tested on: normal primary NK cells, pool 1 (3 donors), resting (IL-2 0 ng/mL); assay: as above; settings: 72 h
[3] = tested on: normal primary NK cells, pool 1 (3 donors) (IL-2 2.5 ng/mL); assay: as above; settings: 72 h
[4] = tested on: normal primary NK cells, pool 2 (3 donors) (IL-2 2.5 ng/mL); assay: as above; settings: 72 h
IMC-1 (IL-2 20 ng/mL) [5] = assay: as above; settings: 72 h
[6] = tested on: normal primary NK cells, pool 3 (3 donors) (IL-2 2.5 ng/mL); assay: as above; settings: 72 h
NK-YS (IL-2 2.5 ng/mL) [7] = assay: as above; settings: 72 h
YT (IL-2 2.5 ng/mL) [8] = assay: as above; settings: 72 h
NK-92 (IL-2 2.5 ng/mL) [9] = assay: as above; settings: 72 h
KHYG-1 (IL-2 2.5 ng/mL) [10] = assay: as above; settings: 72 h
NKL (IL-2 2.5 ng/mL) [11] = assay: as above; settings: 72 h
DERL-7 (IL-2 2.5 ng/mL) [12] = assay: as above; settings: 72 h
SNK-6 (IL-2 2.5 ng/mL) [13] = assay: as above; settings: 72 h
[14] = tested on: normal NK cells expanded with K562-aAPC; assay: as above; settings: 72 h; IL-2 2.5 ng/mL
Protocol: (§1)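 Drug sensitivity and resistance testing on K562-aAPC-expanded normal NK cells: 5 concentrations (10-fold steps over a 10,000-fold range), 72 h at 37 °C, viability by CellTiter-Glo normalised to DMSO and benzethonium chloride controls; DSS from the fitted curve.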

KAI3 (IL-2 2.5 ng/mL) [15] = assay: percent inhibition of viability; higher = more inhibition; settings: 72 h
[16] = tested on: normal primary NK cells, pool 1 (3 donors), resting (IL-2 0 ng/mL); assay: as above; settings: 72 h
[17] = tested on: normal primary NK cells, pool 1 (3 donors) (IL-2 2.5 ng/mL); assay: as above; settings: 72 h
[18] = tested on: normal primary NK cells, pool 2 (3 donors) (IL-2 2.5 ng/mL); assay: as above; settings: 72 h
IMC-1 (IL-2 20 ng/mL) [19] = assay: as above; settings: 72 h
[20] = tested on: normal primary NK cells, pool 3 (3 donors) (IL-2 2.5 ng/mL); assay: as above; settings: 72 h
NK-YS (IL-2 2.5 ng/mL) [21] = assay: as above; settings: 72 h
YT (IL-2 2.5 ng/mL) [22] = assay: as above; settings: 72 h
NK-92 (IL-2 2.5 ng/mL) [23] = assay: as above; settings: 72 h
KHYG-1 (IL-2 2.5 ng/mL) [24] = assay: as above; settings: 72 h
NKL (IL-2 2.5 ng/mL) [25] = assay: as above; settings: 72 h
DERL-7 (IL-2 2.5 ng/mL) [26] = assay: as above; settings: 72 h
SNK-6 (IL-2 2.5 ng/mL) [27] = assay: as above; settings: 72 h
[28] = tested on: normal NK cells expanded with K562-aAPC; assay: as above; settings: 72 h, IL-2 2.5 ng/mL
Protocol: as §1

CCn1c(-c2nonc2N)nc2cnc(Oc3cccc(NC(=O)c4ccc(OCCN5CCOCC5)cc4)c3)cc21 (max concentration tested 10000 nM)
Settings	drug sensitivity score
DERL-7 (IL-2 2.5 ng/mL) [12]	18.2
IMC-1 (IL-2 20 ng/mL) [5]	2.4
KAI3 (IL-2 2.5 ng/mL) [1]	9.52
KHYG-1 (IL-2 2.5 ng/mL) [10]	6.96
NK-92 (IL-2 2.5 ng/mL) [9]	12.4
NK-YS (IL-2 2.5 ng/mL) [7]	12.6
NKL (IL-2 2.5 ng/mL) [11]	5.93
SNK-6 (IL-2 2.5 ng/mL) [13]	19.4
YT (IL-2 2.5 ng/mL) [8]	2.8
[2]	4.87
[3]	6.54
[4]	4.86
[6]	5.91
[14]	3.71

percent inhibition of viability [%]
Settings	1 nM	10 nM	100 nM	1000 nM	10000 nM
DERL-7 (IL-2 2.5 ng/mL) [26]	1.35	15.3	42.9	62.8	72.7
IMC-1 (IL-2 20 ng/mL) [19]	-0.83	-2.25	6.95	14.1	26.8
KAI3 (IL-2 2.5 ng/mL) [15]	-3.04	-8.72	11.1	37.2	95
KHYG-1 (IL-2 2.5 ng/mL) [24]	1.19	3.45	16.6	24.8	68.2
NK-92 (IL-2 2.5 ng/mL) [23]	-3.47	11.4	34.4	37.1	74
NK-YS (IL-2 2.5 ng/mL) [21]	-0.26	-0.53	30.8	48.4	41.9
NKL (IL-2 2.5 ng/mL) [25]	-13.6	-19.1	-8.42	24	52.5
SNK-6 (IL-2 2.5 ng/mL) [27]	-9.46	8.6	49.6	70.1	55.5
YT (IL-2 2.5 ng/mL) [22]	1.84	-0.78	1.36	15.7	28.5
[16]	-4.42	-15.8	7.47	11.9	54.7
[17]	-7.22	2.09	6.8	18.7	70
[18]	-8.71	-2.3	9.01	9.21	60.8
[20]	-9.45	-1.75	4.61	14.9	64.5
[28]	7.28	-0.78	-0.39	9.1	43.7

CCn1c(-c2nonc2N)nc2c(C#CC(C)(C)O)ncc(OC[C@H]3CCCNC3)c21 (max concentration tested 10000 nM)
Settings	drug sensitivity score
DERL-7 (IL-2 2.5 ng/mL) [12]	13.9
IMC-1 (IL-2 20 ng/mL) [5]	0
KAI3 (IL-2 2.5 ng/mL) [1]	0
KHYG-1 (IL-2 2.5 ng/mL) [10]	0
NK-92 (IL-2 2.5 ng/mL) [9]	0.93
NK-YS (IL-2 2.5 ng/mL) [7]	0
NKL (IL-2 2.5 ng/mL) [11]	0
SNK-6 (IL-2 2.5 ng/mL) [13]	0
YT (IL-2 2.5 ng/mL) [8]	0
[2]	7.29
[3]	5.8
[4]	5.23
[6]	5.55
[14]	1.58

percent inhibition of viability [%]
Settings	1 nM	10 nM	100 nM	1000 nM	10000 nM
DERL-7 (IL-2 2.5 ng/mL) [26]	-2.25	7.79	17.3	63.7	76.9
IMC-1 (IL-2 20 ng/mL) [19]	-5.57	1.4	-4.57	-6.32	-11.7
KAI3 (IL-2 2.5 ng/mL) [15]	0.15	-2.81	1.43	5.52	-1.32
KHYG-1 (IL-2 2.5 ng/mL) [24]	-3.45	-0.24	-0.07	6.49	7.82
NK-92 (IL-2 2.5 ng/mL) [23]	-4.48	-3.46	-8.79	-1.49	26.3
NK-YS (IL-2 2.5 ng/mL) [21]	-2.15	0.74	-0.26	2.64	-8.44
NKL (IL-2 2.5 ng/mL) [25]	-5.47	-17.8	-8.99	0.96	9.13
SNK-6 (IL-2 2.5 ng/mL) [27]	1.15	26.6	-2.76	-11.1	-25.3
YT (IL-2 2.5 ng/mL) [22]	-1.14	-1.15	0.26	5.9	9.45
[16]	-12.7	-5.26	17.9	18.4	83.5
[17]	-8.01	-9.66	4.32	9.43	76.3
[18]	-2.46	-9.24	-1.71	8.35	69.8
[20]	-10.1	-4.39	-9.15	11.5	66.5
[28]	-1.22	-3.93	-1.94	9.38	20.1
